Assay results: patent publication US12252481B2, “Anti-viral compounds” (Aligos Therapeutics, Inc., priority 2021, dated 2025)
Where two headings read alike, the source gives them in different places.

Tests used:
[1] = molecular target: T1, human cathepsin L (Homo sapiens, UniProt P07711); test: Cathepsin L assay (Z-FR-AMC fluorescence); format: biochemical; settings: 10 pM human cathepsin L, 30 mins preincubation, Z-FR-AMC 2 μM
T1 construct: purchased R&D Systems
Protocol: For the cathepsin L assay, 10 pM of human cathepsin L (R&D Systems; Minneapolis, MN) was preincubated for 30 mins with test compounds. Reactions were initiated by the addition of a peptide substrate Z—FR-AMC (final concentration 2 μM, Anaspec; Fremont, CA). Fluorescence was measured at 2-minute intervals for 30 mins using a 355/460 excitation/emission filter module on an Envision plate reader (Perkin Elmer; Waltham, MA). The IC50 values were calculated for each assay by fitting the curves using a four-parameter equation in GraphPad Prism.

[2] = molecular target: T2, SARS-Cov-2 3CLpro (Severe acute respiratory syndrome coronavirus 2, UniProt P0DTD1); test: biochemical; settings: 3CLpro, 30 mins preincubation, SAMDI-MS; read-out: SARS-Cov-2 IC50 (class)
T2 construct: 3CLpro and HRV3C was added using a Multidrop Combi

[3] = system: human beta-coronavirus OC43; test: OC43 coronavirus antiviral assay in HeLa cells (cytopathic effect, cell-titer-glo); format: cell-based; settings: Betacoronavirus 1, OC43, HeLa, 144 h, 6 days at 33° C., read-out: EC50 (class)
[4] = system: B.1.1.7 lineage SARS-CoV-2; test: microbe, parasite or virus in culture; format: cell-based
[5] = molecular target: T3, HRV3C (Human rhinovirus 14, UniProt P03303); test: biochemical; parameters: species or system HRV; settings: HRV3C, 30 mins preincubation, SAMDI-MS; read-out: HRV IC50 (bound)
T3 construct: 3CLpro and HRV3C was added using a Multidrop Combi
T3 sequence (P03303 1538-1719): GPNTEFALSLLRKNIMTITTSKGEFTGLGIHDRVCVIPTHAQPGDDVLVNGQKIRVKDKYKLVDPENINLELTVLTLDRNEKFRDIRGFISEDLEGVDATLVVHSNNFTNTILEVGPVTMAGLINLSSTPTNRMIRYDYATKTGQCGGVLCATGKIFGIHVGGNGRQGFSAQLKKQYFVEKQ

[6] = system: SARS-CoV-2-GHB-03021/2020; format: cell-based; settings: read-out: VeroE6 + CP (EC50)
[7] = Severe acute respiratory syndrome coronavirus 2, 96 h; read-out: A549-dual_ACE2_TMPRSS2 (EC50)

T1 sequence (P07711 114-333): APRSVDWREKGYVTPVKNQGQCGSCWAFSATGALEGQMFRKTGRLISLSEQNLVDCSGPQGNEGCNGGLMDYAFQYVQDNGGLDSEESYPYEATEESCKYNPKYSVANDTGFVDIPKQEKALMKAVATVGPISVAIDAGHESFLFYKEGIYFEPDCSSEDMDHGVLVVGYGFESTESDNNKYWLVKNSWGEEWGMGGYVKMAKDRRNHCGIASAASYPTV

Row | SMILES | IC50 [1] [µM] | IC50 [2] [µM] | EC50 [3] [µM] | EC50 [4, 7] [µM] | IC50 [5] [µM] | EC50 [6] [µM] | EC50 ([4]; Severe acute respiratory syndrome coronavirus 2, 96 h, read-out: A549-dual_ACE2_TMPRSS2 (EC50)) [µM]
1 | CC(C)(C)[C@H](NC(=O)C(F)(F)F)C(=O)N1C[C@H]2[C@@H]([C@H]1C(=O)N[C@H](C#N)C[C@@H]1CCNC1=O)[C@H]1CC[C@@H]2O1 (mixture of isomers) [Compound 58, (1S,3aR,4S,7R,7aS)-N-((S)-1-cyano-2-((S)-2-oxopyrrolidin-3-yl)ethyl)-2-((S)-3,3-dimethyl-2-(2,2,2-trifluoroacetamido)butanoyl)octahydro-1H-4,7-epoxyisoindole-1-carboxamide] | ≥ 10 | 0.2 to 2 | 1 to 10 | 1 to 10 | > 10 | 1 to 10 | 
2 | N#C[C@H](C[C@@H]1CCNC1=O)NC(=O)[C@@H]1[C@@H]2[C@H](CN1C(=O)[C@@H]1C[C@]13CCc1ccccc13)[C@@H]1C=C[C@H]2C1 (single isomer, unassigned) [Example 38, (1S,3aR,4S,7R,7aS)-N-((S)-1-cyano-2-((S)-2-oxopyrrolidin-3-yl)ethyl)-2-((1R*,2R*)-2′,3′-dihydrospiro[cyclopropane-1,1′-indene]-2-carbonyl)-2,3,3a,4,7,7a-hexahydro-1H-4,7-methanoisoindole-1-carboxamide] | ≥ 10 |  | 1 to 10 |  |  | 0.1 to 1 | 1 to 10
3 | CC(C)(C)[C@H](NC(=O)C(F)(F)C(F)(F)F)C(=O)N1C[C@H]2[C@@H]([C@H]1C(=O)N[C@H](C#N)C[C@@H]1CCNC1=O)[C@H]1C=C[C@@H]2C1(F)F [Compound 129, (1R,2R,3S,6S,7S)—N-[(1S)-1-cyano-2-[(3S)-2-oxopyrrolidin-3-yl]ethyl]-4-[(2S)-3,3-dimethyl-2-(2,2,3,3,3-pentafluoropropanamido)butanoyl]-10,10-difluoro-4-azatricyclo[5.2.1.0^{2,6}]dec-8-ene-3-carboxamide] | ≥ 10 | < 0.02 | < 0.1 | < 0.1 | > 0.5 |  | 
4 | COC(C)(C)[C@H](NC(=O)C(F)(F)C(F)(F)F)C(=O)N1C[C@H]2[C@@H]([C@H]1C(=O)N[C@H](C#N)C[C@@H]1CCNC1=O)[C@H]1C=C[C@@H]2C1 [Compound 131] | ≥ 10 | < 0.02 | < 0.1 | < 0.1 | > 0.5 |  | 
5 | CC(C)(C)[C@H](NC(=O)CC(F)(F)F)C(=O)N1C[C@H]2[C@@H]([C@H]1C(=O)N[C@H](C#N)C[C@@H]1OCCNC1=O)[C@H]1C=C[C@@H]2C1 [Compound 132] | ≥ 10 | < 0.02 | < 0.1 | < 0.1 | > 0.5 |  | 
6 | CC(F)(F)[C@H](NC(=O)C(F)(F)F)C(=O)N1C[C@H]2[C@@H]([C@H]1C(=O)N[C@H](C#N)C[C@@H]1CCNC1=O)[C@H]1C=C[C@@H]2C1 [Compound 133] | ≥ 10 | < 0.02 | < 0.1 | 0.1 to 1 | > 0.5 |  | 
7 | CC(C)(C)[C@H](NC(=O)C(F)(F)F)C(=O)N1C[C@H]2[C@@H]([C@H]1C(=O)N[C@H](C#N)C[C@@H]1CCNC1=O)[C@H]1C=C[C@@H]2C1(F)F [Example 82, (1S,3aS,4S,7R,7aR)—N-((S)-1-cyano-2-((S)-2-oxopyrrolidin-3-yl)ethyl)-2-((S)-3,3-dimethyl-2-(2,2,2-trifluoroacetamido)butanoyl)-8,8-difluoro-2,3,3a,4,7,7a-hexahydro-1H-4,7-methanoisoindole-1-carboxamide] | ≥ 10 | < 0.02 | < 0.1 | < 0.1 | > 10 |  | 
8 | C[C@@H](OCC1CC1)[C@H](NC(=O)C(F)(F)F)C(=O)N1C[C@H]2[C@@H]([C@H]1C(=O)N[C@H](C#N)C[C@@H]1CCNC1=O)[C@H]1C=C[C@@H]2C1 [Example 99] | ≥ 10 | < 0.02 | < 0.1 | < 0.1 | > 0.5 |  | 
